Test results from the supplement of paper PMC13380429.

Key:
Conditions in all cases: 72 h
HepG2 [1] = experiment: cell viability relative to DMSO; higher = less toxic
Calu-3 [2] = experiment: as above
Caco-2 [3] = experiment: as above
U2OS [4] = experiment: as above
Vero E6 [5] = experiment: as above
HepG2 [6] = experiment: relative viability EC50 (midpoint between 100% and the lowest measured viability); higher = less toxic
Calu-3 [7] = experiment: as above
Caco-2 [8] = experiment: as above
U2OS [9] = experiment: as above
Vero E6 [10] = experiment: as above
HepG2 [11] = experiment: drug sensitivity score (DSS) for viability; higher = more toxic; extreme values may be limits of the assay
Calu-3 [12] = experiment: as above
Caco-2 [13] = experiment: as above
U2OS [14] = experiment: as above
Vero E6 [15] = experiment: as above

| Structure (SMILES) | cell viability (HepG2 [1]; 1 nM) [%] | cell viability (HepG2 [1]; 10 nM) [%] | cell viability (HepG2 [1]; 100 nM) [%] | cell viability (HepG2 [1]; 1000 nM) [%] | cell viability (HepG2 [1]; 10000 nM) [%] | cell viability (Calu-3 [2]; 1 nM) [%] | cell viability (Calu-3 [2]; 10 nM) [%] | cell viability (Calu-3 [2]; 100 nM) [%] | cell viability (Calu-3 [2]; 1000 nM) [%] | cell viability (Calu-3 [2]; 10000 nM) [%] | cell viability (Caco-2 [3]; 1 nM) [%] | cell viability (Caco-2 [3]; 10 nM) [%] | cell viability (Caco-2 [3]; 100 nM) [%] | cell viability (Caco-2 [3]; 1000 nM) [%] | cell viability (Caco-2 [3]; 10000 nM) [%] | cell viability (U2OS [4]; 1 nM) [%] | cell viability (U2OS [4]; 10 nM) [%] | cell viability (U2OS [4]; 100 nM) [%] | cell viability (U2OS [4]; 1000 nM) [%] | cell viability (U2OS [4]; 10000 nM) [%] | cell viability (Vero E6 [5]; 1 nM) [%] | cell viability (Vero E6 [5]; 10 nM) [%] | cell viability (Vero E6 [5]; 100 nM) [%] | cell viability (Vero E6 [5]; 1000 nM) [%] | cell viability (Vero E6 [5]; 10000 nM) [%] | relative viability EC50 (HepG2 [6]) [µM] | relative viability EC50 (Calu-3 [7]) [µM] | relative viability EC50 (Caco-2 [8]) [µM] | relative viability EC50 (U2OS [9]) [µM] | relative viability EC50 (Vero E6 [10]) [µM] | drug sensitivity score (HepG2 [11]) | drug sensitivity score (Calu-3 [12]) | drug sensitivity score (Caco-2 [13]) | drug sensitivity score (U2OS [14]) | drug sensitivity score (Vero E6 [15]) |
| --- | --- | --- | --- | --- | --- | --- | --- | --- | --- | --- | --- | --- | --- | --- | --- | --- | --- | --- | --- | --- | --- | --- | --- | --- | --- | --- | --- | --- | --- | --- | --- | --- | --- | --- | --- |
| Fc1ccc(-c2c3cccc(C(F)(F)F)c3nn2Cc2ccc(F)cc2Cl)cc1 [LXR-623] | 95.5 | 94.4 | 87.9 | 90.2 | 77.2 | 101 | 97.3 | 97 | 93.7 | 91.2 | 102 | 92 | 94.5 | 96.5 | 83.2 | 102 | 98.2 | 102 | 97.1 | 97.4 | 105 | 105 | 102 | 98 | 98.6 | > 10 | > 10 | > 10 | > 10 | > 10 | 1.9 | 0 | 0.2 | 0 | 0 |
| Cc1ccc(S(=O)(=O)n2c(N)nc3ccccc32)cc1 [ML130] | 98 | 107 | 111 | 100 | 104 | 103 | 89.2 | 99.5 | 101 | 103 | 107 | 97 | 107 | 101 | 90.5 | 104 | 108 | 105 | 103 | 97.3 | 103 | 108 | 103 | 109 | 96.2 | > 10 | > 10 | > 10 | > 10 | > 10 | 0 | 0 | 0 | 0 | 0 |
| NC(=O)C1=CN([C@@H]2O[C@H](COP(=O)(O)OP(=O)(O)OC[C@H]3O[C@@H](n4cnc5c(N)ncnc54)[C@H](OP(=O)(O)O)[C@@H]3O)[C@@H](O)[C@H]2O)C=CC1 [NADPH] | 101 | 104 | 97.7 | 86.2 | 104 | 90.8 | 85.1 | 87.7 | 91 | 101 | 86.7 | 92.7 | 88.4 | 93 | 91.9 | 94.1 | 101 | 98.4 | 102 | 98.1 | 105 | 86 | 103 | 94.6 | 99.5 | > 10 | > 10 | > 10 | > 10 | > 10 | 0 | 0.1 | 0 | 0 | 0 |
